pIC50: −log10 of the molar value.

Experiment [1] has as its target Met (phospho-Met, HGF-stimulated PC-3 prostate cancer cells) (Homo sapiens (Human), UniProt P08581). In words: Met autophosphorylation ELISA in PC-3 cells (Example F). The class given is cell-based. The note with it: cellular activity; Met autophosphorylation ELISA in PC-3 cells; read-out: c-Met IC50. An outline of the steps: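 Compounds were tested on HGF-stimulated PC-3 cells. After 24 h culture and 3 h serum starvation, cells got compound for 1 h and 100 ng/mL HGF for 10 min, and Met tyrosine phosphorylation was measured by ELISA.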

The target in experiment [2] is KDR (phospho-KDR, VEGF165-stimulated HUVEC cells) (Homo sapiens (Human), UniProt P35968). In words: KDR autophosphorylation ELISA in HUVEC cells (Example G). The class given is cell-based. Conditions: cellular activity; KDR autophosphorylation ELISA in HUVEC cells. An outline of the steps:
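Read-out: phospho-KDR in cell lysates by DuoSet IC ELISA, normalised between VEGF-stimulated DMSO wells (100%) and unstimulated wells (0%). Human endothelial cells were starved overnight in serum-free medium, exposed to compound for 1 h, and then pulsed with 100 ng/mL VEGF165 for 5 min.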

Met (phospho-Met, HGF-stimulated PC-3 prostate cancer cells), sequence (P08581 25-1390): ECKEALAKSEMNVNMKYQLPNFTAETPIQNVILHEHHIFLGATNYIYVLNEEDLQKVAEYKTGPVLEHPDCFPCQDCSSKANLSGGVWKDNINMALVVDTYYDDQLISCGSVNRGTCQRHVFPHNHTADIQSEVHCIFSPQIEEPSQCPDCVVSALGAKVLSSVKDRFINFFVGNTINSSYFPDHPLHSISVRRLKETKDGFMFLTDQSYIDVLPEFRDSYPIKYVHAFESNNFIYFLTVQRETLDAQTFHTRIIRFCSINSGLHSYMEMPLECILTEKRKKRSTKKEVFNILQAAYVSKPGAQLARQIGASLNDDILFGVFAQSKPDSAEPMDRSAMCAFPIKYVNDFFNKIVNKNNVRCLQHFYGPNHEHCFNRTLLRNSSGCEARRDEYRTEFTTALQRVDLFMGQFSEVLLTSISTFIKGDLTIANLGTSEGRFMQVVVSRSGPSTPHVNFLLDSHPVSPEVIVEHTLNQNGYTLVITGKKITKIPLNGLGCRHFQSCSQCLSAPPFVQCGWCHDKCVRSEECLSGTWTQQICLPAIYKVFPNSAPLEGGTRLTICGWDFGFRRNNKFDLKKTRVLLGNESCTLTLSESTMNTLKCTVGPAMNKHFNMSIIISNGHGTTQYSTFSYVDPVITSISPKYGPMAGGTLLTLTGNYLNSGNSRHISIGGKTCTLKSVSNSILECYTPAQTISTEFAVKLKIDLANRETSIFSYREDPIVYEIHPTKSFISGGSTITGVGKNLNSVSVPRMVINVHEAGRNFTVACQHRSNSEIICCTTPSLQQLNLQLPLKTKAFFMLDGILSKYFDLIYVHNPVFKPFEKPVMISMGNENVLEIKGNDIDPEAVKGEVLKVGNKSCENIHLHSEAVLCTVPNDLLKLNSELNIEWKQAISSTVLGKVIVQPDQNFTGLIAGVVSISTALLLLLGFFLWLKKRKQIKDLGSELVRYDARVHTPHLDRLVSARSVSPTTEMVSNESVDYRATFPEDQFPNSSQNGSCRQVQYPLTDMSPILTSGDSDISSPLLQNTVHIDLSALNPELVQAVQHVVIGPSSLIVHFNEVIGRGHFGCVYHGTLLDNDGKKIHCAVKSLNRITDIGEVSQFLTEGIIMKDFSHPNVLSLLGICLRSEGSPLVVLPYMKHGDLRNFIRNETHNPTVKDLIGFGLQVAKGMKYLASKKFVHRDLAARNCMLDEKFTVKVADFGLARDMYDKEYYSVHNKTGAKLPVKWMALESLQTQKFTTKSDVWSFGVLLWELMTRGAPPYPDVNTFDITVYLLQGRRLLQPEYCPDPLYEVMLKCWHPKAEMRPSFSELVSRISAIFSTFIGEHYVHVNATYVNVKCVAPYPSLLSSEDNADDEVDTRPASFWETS
KDR (phospho-KDR, VEGF165-stimulated HUVEC cells), sequence (P35968 20-1356): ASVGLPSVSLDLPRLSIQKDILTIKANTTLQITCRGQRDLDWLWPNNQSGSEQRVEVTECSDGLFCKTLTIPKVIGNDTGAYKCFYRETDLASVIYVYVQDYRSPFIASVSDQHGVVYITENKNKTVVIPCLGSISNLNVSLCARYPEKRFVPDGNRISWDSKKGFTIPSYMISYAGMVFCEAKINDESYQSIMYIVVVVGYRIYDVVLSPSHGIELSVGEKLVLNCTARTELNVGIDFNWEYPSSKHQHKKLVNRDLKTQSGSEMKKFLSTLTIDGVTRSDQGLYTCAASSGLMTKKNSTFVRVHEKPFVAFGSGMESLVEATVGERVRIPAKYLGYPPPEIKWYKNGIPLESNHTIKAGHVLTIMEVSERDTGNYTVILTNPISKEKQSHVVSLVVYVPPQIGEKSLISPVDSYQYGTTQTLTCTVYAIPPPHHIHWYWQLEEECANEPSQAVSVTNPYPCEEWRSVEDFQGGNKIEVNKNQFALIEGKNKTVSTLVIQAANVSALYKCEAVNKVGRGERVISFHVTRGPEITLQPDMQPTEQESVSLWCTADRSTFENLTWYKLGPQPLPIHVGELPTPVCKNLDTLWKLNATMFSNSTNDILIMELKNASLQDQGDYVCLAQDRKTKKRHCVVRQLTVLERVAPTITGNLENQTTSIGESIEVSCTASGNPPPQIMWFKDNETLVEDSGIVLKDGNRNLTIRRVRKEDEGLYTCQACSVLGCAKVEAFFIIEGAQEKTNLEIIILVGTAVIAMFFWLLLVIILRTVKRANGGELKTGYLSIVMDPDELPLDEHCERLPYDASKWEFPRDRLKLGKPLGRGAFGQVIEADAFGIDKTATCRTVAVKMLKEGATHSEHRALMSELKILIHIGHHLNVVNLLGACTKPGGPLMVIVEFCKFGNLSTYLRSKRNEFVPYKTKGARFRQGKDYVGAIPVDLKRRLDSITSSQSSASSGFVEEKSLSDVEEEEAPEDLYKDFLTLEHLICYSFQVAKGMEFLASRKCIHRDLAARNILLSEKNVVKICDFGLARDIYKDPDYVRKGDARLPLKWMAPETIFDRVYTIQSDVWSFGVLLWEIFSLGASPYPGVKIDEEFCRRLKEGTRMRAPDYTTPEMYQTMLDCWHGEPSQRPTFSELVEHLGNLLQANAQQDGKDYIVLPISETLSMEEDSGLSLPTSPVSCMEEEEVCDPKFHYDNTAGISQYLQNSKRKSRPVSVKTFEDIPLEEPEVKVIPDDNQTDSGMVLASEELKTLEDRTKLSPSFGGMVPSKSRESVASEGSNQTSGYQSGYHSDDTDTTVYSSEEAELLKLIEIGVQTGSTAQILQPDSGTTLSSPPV

Take `CCn1cc(C(=O)Nc2ccc(Oc3ccnc4cc(OC)cnc34)cc2)c(=O)c(-c2ccc(F)cc2)c1` [Compound 169, 1-Ethyl-5-(4-fluorophenyl)-N-[4-[(7-methoxy-1,5-naphthyridin-4-yl)oxy]phenyl]-4-oxopyridine-3-carboxamide]: the pIC50 in experiment [1] was above 7.00; in experiment [2], below 6.52.
For `CCn1cc(C(=O)Nc2ccc(Oc3ccnc4cc(OC)cnc34)c(F)c2)c(=O)c(-c2ccc(F)cc2)c1` [Compound 170, 1-Ethyl-N-[3-fluoro-4-[(7-methoxy-1,5-naphthyridin-4-yl)oxy]phenyl]-5-(4-fluorophenyl)-4-oxopyridine-3-carboxamide] the same measures were above 7.00 and below 6.52.
Regarding `COc1cc2nccc(Oc3ccc(NC(=O)c4cnc(C)c(-c5ccc(F)cc5)c4O)cc3)c2cc1OC` [Compound 171, N-[4-(6,7-Dimethoxyquinolin-4-yl)oxyphenyl]-5-(4-fluorophenyl)-4-hydroxy-6-methylpyridine-3-carboxamide], the pIC50 in experiment [1] and in experiment [2] was above 7.00 in each case.
For `COc1ccc2nccc(Oc3ccc(NC(=O)c4cnc(C)c(-c5ccc(F)cc5)c4O)cc3F)c2n1` [Compound 172, N-[3-Fluoro-4-[(6-methoxy-1,5-naphthyridin-4-yl)oxy]phenyl]-5-(4-fluorophenyl)-4-hydroxy-6-methylpyridine-3-carboxamide], the pIC50 in experiment [1] and in experiment [2] was above 7.00 each time.
With `COc1cc2nccc(Oc3ccc(NC(=O)c4c(C)nc(C)c(-c5ccc(F)cc5)c4O)cc3)c2nc1OC` [Compound 173, N-[4-[(6,7-Dimethoxy-1,5-naphthyridin-4-yl)oxy]phenyl]-5-(4-fluorophenyl)-4-hydroxy-2,6-dimethylpyridine-3-carboxamide], the pIC50 in experiment [1] and in experiment [2] was above 7.00 in each case.
In the case of `COc1cc2nccc(Oc3ccc(NC(=O)c4cnc(C)c(-c5ccc(F)cc5C)c4O)cc3)c2nc1OC` [Compound 174, N-[4-[(6,7-Dimethoxy-1,5-naphthyridin-4-yl)oxy]phenyl]-5-(4-fluoro-2-methylphenyl)-4-hydroxy-6-methylpyridine-3-carboxamide], the pIC50 in experiment [1] and in experiment [2] was above 7.00 each time.
Consider `COc1cnc2c(Oc3ccc(NC(=O)c4cnc(C)c(-c5ccc(F)cc5C)c4O)cc3F)ccnc2c1` [Compound 175, N-[3-Fluoro-4-[(7-methoxy-1,5-naphthyridin-4-yl)oxy]phenyl]-5-(4-fluoro-2-methylphenyl)-4-hydroxy-6-methylpyridine-3-carboxamide], for which the pIC50 in experiment [1] and in experiment [2] was above 7.00 in each case.
Turning to `COc1cc2nccc(Oc3ccc(NC(=O)c4cnc(N)n(-c5ccc(F)cc5)c4=O)cc3F)c2nc1OC` [Compound 565, 2-Amino-N-[4-[(6,7-dimethoxy-1,5-naphthyridin-4-yl)oxy]-3-fluorophenyl]-1-(4-fluorophenyl)-6-oxopyrimidine-5-carboxamide], the pIC50 in experiment [1] and in experiment [2] was above 7.00 each time.
`CCn1nc(C(=O)Nc2ccc(Oc3ccnc4cc(OC)c(OC)nc34)c(F)c2)c(=O)c(-c2ccc(F)cc2)c1C` [Compound 568, N-[4-[(6,7-Dimethoxy-1,5-naphthyridin-4-yl)oxy]-3-fluorophenyl]-1-ethyl-5-(4-fluorophenyl)-6-methyl-4-oxopyridazine-3-carboxamide]: the pIC50 in experiment [1] and in experiment [2] was above 7.00 each time.
Turning to `Cc1ncc(C(=O)Nc2ccc(Oc3ccnc4cc(C(N)=O)cnc34)c(F)c2)c(O)c1-c1ccc(F)cc1` [Compound 577, 8-[2-Fluoro-4-[[5-(4-fluorophenyl)-4-hydroxy-6-methylpyridine-3-carbonyl]amino]phenoxy]-1,5-naphthyridine-3-carboxamide], the pIC50 in experiment [1] and in experiment [2] was above 7.00 throughout.
As for `CNC(=O)c1cnc2c(Oc3ccc(NC(=O)c4cnc(C)c(-c5ccc(F)cc5)c4O)cc3F)ccnc2c1` [Compound 578, 8-[2-Fluoro-4-[[5-(4-fluorophenyl)-4-hydroxy-6-methylpyridine-3-carbonyl]amino]phenoxy]-N-methyl-1,5-naphthyridine-3-carboxamide], the pIC50 in experiment [1] and in experiment [2] was below 6.52 each time.
On to `COc1cc2nccc(Oc3ccc(NC(=O)c4cn(C(C)C)c(C)c(-c5ccc(F)cc5)c4=O)cc3F)c2nc1N` [Compound 579, N-[4-[(6-Amino-7-methoxy-1,5-naphthyridin-4-yl)oxy]-3-fluorophenyl]-5-(4-fluorophenyl)-6-methyl-4-oxo-1-propan-2-ylpyridine-3-carboxamide], for which the results for the negative-log IC50 (pIC50) in experiment [1] and in experiment [2] were above 7.00 and below 6.52, respectively.
For `COc1cc2nccc(Oc3ccc(NC(=O)c4cn(C(C)C)c(C)c(-c5ccc(F)cc5)c4=O)cc3F)c2nc1O` [Compound 580, N-[3-Fluoro-4-[(6-hydroxy-7-methoxy-1,5-naphthyridin-4-yl)oxy]phenyl]-5-(4-fluorophenyl)-6-methyl-4-oxo-1-propan-2-ylpyridine-3-carboxamide] the same measures were above 7.00 and below 6.52.
Consider `COc1cc2nccc(Oc3ccc(NC(=O)c4cn(C(C)C)c(C)c(-c5ccc(F)cc5)c4=O)cc3F)c2nc1NS(C)(=O)=O` [Compound 581, N-[3-Fluoro-4-[[6-(methanesulfonamido)-7-methoxy-1,5-naphthyridin-4-yl]oxy]phenyl]-5-(4-fluorophenyl)-6-methyl-4-oxo-1-propan-2-ylpyridine-3-carboxamide], for which the pIC50 in experiment [1] was 6.52 to 7.00; in experiment [2], below 6.52.
For `CNc1nc2c(Oc3ccc(NC(=O)c4cn(C(C)C)c(C)c(-c5ccc(F)cc5)c4=O)cc3F)ccnc2cc1OC` [Compound 582, N-[3-Fluoro-4-[[7-methoxy-6-(methylamino)-1,5-naphthyridin-4-yl]oxy]phenyl]-5-(4-fluorophenyl)-6-methyl-4-oxo-1-propan-2-ylpyridine-3-carboxamide] the same measures were above 7.00 and 6.52 to 7.00.
For `COc1cc2nccc(Oc3ccc(NC(=O)c4cnc(C)c(-c5ccc(F)cc5)c4O)cc3F)c2nc1NS(C)(=O)=O` [Compound 584, N-[3-Fluoro-4-[[6-(methanesulfonamido)-7-methoxy-1,5-naphthyridin-4-yl]oxy]phenyl]-5-(4-fluorophenyl)-4-hydroxy-6-methylpyridine-3-carboxamide] the same measures were above 7.00 and above 7.00.
For `CNc1c(-c2ccc(F)cc2)c(=O)c(C(=O)Nc2ccc(Oc3ccnc4cc(OC)cnc34)c(F)c2)cn1C` [Compound 585, N-[3-Fluoro-4-[(7-methoxy-1,5-naphthyridin-4-yl)oxy]phenyl]-5-(4-fluorophenyl)-1-methyl-6-(methylamino)-4-oxopyridine-3-carboxamide] the same measures were above 7.00 and below 6.52.
`COc1cnc2c(Oc3ccc(NC(=O)c4cn(C)c(C#N)c(-c5ccc(F)cc5)c4=O)cc3F)ccnc2c1` [Compound 586, 6-Cyano-N-[3-fluoro-4-[(7-methoxy-1,5-naphthyridin-4-yl)oxy]phenyl]-5-(4-fluorophenyl)-1-methyl-4-oxopyridine-3-carboxamide]: the pIC50 in experiment [1] is 6.52 to 7.00; in experiment [2] it was below 6.52.
On the same counts, the results for `COc1cnc2c(Oc3ccc(NC(=O)c4cn(C)c(OC)c(-c5ccc(F)cc5)c4=O)cc3F)ccnc2c1` [Compound 587, N-[3-Fluoro-4-[(7-methoxy-1,5-naphthyridin-4-yl)oxy]phenyl]-5-(4-fluorophenyl)-6-methoxy-1-methyl-4-oxopyridine-3-carboxamide] are above 7.00 and below 6.52.
Consider `CCc1nc2c(Oc3ccc(NC(=O)c4cn(C(C)C)c(C)c(-c5ccc(F)cc5)c4=O)cc3F)ccnc2cc1OC` [Compound 588, N-[4-[(6-Ethyl-7-methoxy-1,5-naphthyridin-4-yl)oxy]-3-fluorophenyl]-5-(4-fluorophenyl)-6-methyl-4-oxo-1-propan-2-ylpyridine-3-carboxamide], for which the figures for the pIC50 in experiment [1] and in experiment [2] were above 7.00 and below 6.52, respectively.
In the case of `CCc1nc2c(Oc3ccc(NC(=O)c4cnc(C)c(-c5ccc(F)cc5)c4O)cc3F)ccnc2cc1OC` [Compound 589, N-[4-[(6-Ethyl-7-methoxy-1,5-naphthyridin-4-yl)oxy]-3-fluorophenyl]-5-(4-fluorophenyl)-4-hydroxy-6-methylpyridine-3-carboxamide], the pIC50 in experiment [1] and in experiment [2] was above 7.00 in each case.
For the molecule `Cc1cc(F)ccc1-c1c(C)ncc(C(=O)Nc2ccc(Oc3ccnc4cc(C(C)C)cnc34)c(F)c2)c1O` [Compound 593, 5-(4-Fluoro-2-methylphenyl)-N-[3-fluoro-4-[(7-propan-2-yl-1,5-naphthyridin-4-yl)oxy]phenyl]-4-hydroxy-6-methylpyridine-3-carboxamide], the pIC50 in experiment [1] and in experiment [2] was above 7.00 in each case.
On to `Cc1ncc(C(=O)Nc2ccc(Oc3ccnc4cc(C(C)C)cnc34)cc2)c(O)c1-c1ccc(F)cc1` [Compound 594, 5-(4-Fluorophenyl)-4-hydroxy-6-methyl-N-[4-[(7-propan-2-yl-1,5-naphthyridin-4-yl)oxy]phenyl]pyridine-3-carboxamide], for which the pIC50 in experiment [1] and in experiment [2] was above 7.00 in each case.
As to `Cc1nc(C)c(-c2ccc(F)cc2)c(O)c1C(=O)Nc1ccc(Oc2ccnc3cc(C(C)C)cnc23)c(F)c1` [Compound 595, 5-(4-Fluorophenyl)-N-[3-fluoro-4-[(7-propan-2-yl-1,5-naphthyridin-4-yl)oxy]phenyl]-4-hydroxy-2,6-dimethylpyridine-3-carboxamide], the pIC50 in experiment [1] and in experiment [2] was above 7.00 in each case.

(Values after patent US12371428B2 (Exelixis, Inc., priority 2019, dated 2025).)
